target: HIV-1 PR (Human immunodeficiency virus type 1 group M subtype B, UniProt P04585); test: HIV-protease inhibitory activity assay (FRET peptide substrate); format: biochemical; details: Test Example 1
In short: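 Inhibition of HIV-1 protease was measured as loss of fluorescence dequenching of a HiLyte Fluor 488/QXL 520 peptide at 2 μmol/L, pH 4.8, room temperature, 60 minute reaction. IC50 was derived by nonlinear four-parameter fitting.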

Row | SMILES | IC50
1 | COc1ccc(S(=O)(=O)N(CC(C)C)CC(O)C(Cc2ccc(OCc3ccccc3-c3sc(Oc4ccccc4)nc3C(=O)O)cc2)NC(=O)OC2COC3OCCC23)cc1 (centres unmarked) [Compound I-843] | 1.33 nM
2 | COc1ccc(S(=O)(=O)N(CC(C)C)C[C@@H](O)[C@H](Cc2ccccc2)NC(=O)O[C@H]2CO[C@@]3(CNC(=O)/C=C/c4sc5c(c4C(=O)O)CC(C)(C)CC5)OCC[C@@H]23)cc1 [Compound I-31] | 0.73 nM
3 | COc1ccc(S(=O)(=O)N(CC(C)C)CC(O)C(Cc2ccc(N(C)CCOc3ccccc3-c3sc4c(c3C(=O)O)CC(C)(C)CC4)cc2)NC(=O)OC2COC3(C)OCCC23)cc1 (centres unmarked) [Compound I-647] | 2.59 nM
4 | COc1ccc(S(=O)(=O)N(CC(C)C)C[C@@H](O)[C@H](Cc2ccc(OCc3ccccc3-c3sc4c(c3C(N)=O)CC(C)(C)CC4)cc2)NC(=O)O[C@H]2CO[C@@]3(C)OCC[C@@H]23)cc1 [Compound I-20] | 1.77 nM
5 | COc1ccc(S(=O)(=O)N(CC(C)C)CC(O)C(Cc2ccc(NCc3ccccc3-c3cccc4[nH]c(C(=O)O)cc34)cc2)NC(=O)OC2COC3(C)OCCC23)cc1 (centres unmarked) [Compound I-502] | 1.87 nM
6 | COc1ccc(S(=O)(=O)N(CC(C)C)C[C@@H](O)[C@H](Cc2ccc(C#Cc3sc4c(c3C(=O)O)CC(C)(C)CC4)cc2)NC(=O)O[C@H]2CO[C@@]3(C)OCC[C@@H]23)cc1 [Compound I-11] | 1.4 nM
7 | COc1ccc(S(=O)(=O)N(CC(C)C)CC(O)C(Cc2ccc(OCc3ccccc3-c3sc(C)c(-c4ccccc4)c3C(=O)O)cc2)NC(=O)OC2COC3OCCC23)cc1 (centres unmarked) [Compound I-824] | 1.01 nM
8 | COc1ccc(S(=O)(=O)N(CC(C)C)CC(O)C(Cc2ccc(NCc3ncn4cc(-c5sc6c(c5C(=O)O)CC(C)(C)CC6)ccc34)cc2)NC(=O)OC2COC3(C)OCCC23)cc1 (centres unmarked) [Compound I-323] | 2.41 nM
9 | COc1ccc(S(=O)(=O)N(CC(C)C)CC(O)C(Cc2ccc(N(CCC(C)C)Cc3ccccc3-c3sc4c(c3C(=O)O)CC(C)(C)CC4)cc2)NC(=O)OC2COC3(C)OCCC23)cc1 (centres unmarked) [Compound I-461] | 7.09 nM
10 | COc1ccc(S(=O)(=O)N(CC(C)C)CC(O)C(Cc2ccc(NCc3ccncc3-c3sc4c(c3C(=O)O)CC(C)(C)CC4)cc2)NC(=O)OC2COC3(C)OCCC23)cc1 (centres unmarked) [Compound I-273] | 2.25 nM
11 | CC(C)CN(CC(O)C(Cc1ccc(NCc2cc(C(F)(F)F)ccc2-c2sc3c(c2C(=O)O)CC(C)(C)CC3)cc1)NC(=O)OC1COC2OCCC12)S(=O)(=O)c1ccc2c(c1)OCO2 (centres unmarked) [Compound I-874] | 5.12 nM
12 | COc1ccc(S(=O)(=O)N(CC(C)C)CC(O)C(Cc2ccc(N(CCc3ccccc3)Cc3ccccc3-c3sc4c(c3C(=O)O)CC(C)(C)CC4)cc2)NC(=O)OC2COC3(C)OCCC23)cc1 (centres unmarked) [Compound I-421] | 14.7 nM
13 | COc1ccc(S(=O)(=O)N(CC(C)C)CC(O)C(Cc2ccc(N(Cc3nccs3)Cc3ccccc3-c3sc4c(c3C(=O)O)CC(C)(C)CC4)cc2)NC(=O)OC2COC3(C)OCCC23)cc1 (centres unmarked) [Compound I-431] | 3.72 nM
14 | COc1ccc(S(=O)(=O)N(CC(C)C)CC(O)C(Cc2ccc(NCC3(c4cccc(-c5sc6c(c5C(=O)O)CC(C)(C)CC6)c4)CCCC3)cc2)NC(=O)OC2COC3(C)OCCC23)cc1 (centres unmarked) [Compound I-393] | 14.5 nM
15 | COc1ccc(S(=O)(=O)N(CC(C)C)CC(O)C(Cc2ccc(CN(C)c3cccc(-c4sc5c(c4C(=O)O)CC(C)(C)CC5)c3)cc2)NC(=O)OC2COC3(C)OCCC23)cc1 (centres unmarked) [Compound I-264] | 3.53 nM
16 | COc1ccc(S(=O)(=O)N(CC(C)C)CC(O)C(Cc2ccc(NCc3cccc(-c4sc5c(c4C(=O)O)CC(C)(C)CC5)c3Cl)cc2)NC(=O)OC2COC3(C)OCCC23)cc1 (centres unmarked) [Compound I-544] | 3.65 nM
17 | COc1ccc(S(=O)(=O)N(CC(C)C)C[C@@H](O)[C@H](Cc2ccc(NCc3sc4c(c3C(=O)O)CC(C)(C)CC4)cc2)NC(=O)O[C@H]2CO[C@@]3(C)OCC[C@@H]23)cc1 [Compound I-14] | 1.7 nM
18 | CC(C)CN(C[C@@H](O)[C@H](Cc1ccccc1)NC(=O)O[C@H]1CO[C@@]2(C)OCC[C@@H]12)S(=O)(=O)c1ccc2nc(NCCCCOc3ccc(-c4sc5c(c4C(=O)O)CC(C)(C)CC5)cc3)sc2c1 [Compound I-27] | 3.7 nM
19 | COc1ccc(S(=O)(=O)N(CC(C)C)CC(O)C(Cc2ccc(NC3CCCc4c(-c5sc6c(c5C(=O)O)CC(C)(C)CC6)cccc43)cc2)NC(=O)OC2COC3(C)OCCC23)cc1 (centres unmarked) [Compound I-711] | 8.1 nM
20 | COc1ccc(S(=O)(=O)N(CC(C)C)CC(O)C(Cc2ccc(NCC3CC(C)(C)CC3c3sc4c(c3C(=O)O)CC(C)(C)CC4)cc2)NC(=O)OC2COC3OCCC23)cc1 (centres unmarked) [Compound I-883] | 2.15 nM
21 | COc1ccc(S(=O)(=O)N(CC(C)C)CC(O)C(Cc2ccc(OCc3ccccc3-c3c(C(=O)O)c4c(n3C)CCCC4)cc2)NC(=O)OC2COC3(C)OCCC23)cc1 (centres unmarked) [Compound I-50] | 1.13 nM
22 | COc1ccc(S(=O)(=O)N(CC(C)C)CC(O)C(Cc2ccc(NCc3ccc(N4CCCCC4)cc3-c3sc4c(c3C(=O)O)CC(C)(C)CC4)cc2)NC(=O)OC2COC3(C)OCCC23)cc1 (centres unmarked) [Compound I-677] | 2.32 nM

Row | SMILES | IC50
23 | CC(C)CN(CC(O)C(Cc1ccccc1)NC(=O)OC1COC2OCCC12)S(=O)(=O)c1ccc(NCc2sc3c(c2C(=O)O)CC(C)(C)CC3)cc1 (centres unmarked) [Compound I-816] | 5.78 nM
24 | COc1ccc(S(=O)(=O)N(CC(C)C)CC(O)C(Cc2ccc(Oc3ccc(-c4sc5c(c4C(=O)O)CC(C)(C)CC5)c(C(F)(F)F)c3)cc2)NC(=O)OC2COC3(C)OCCC23)cc1 (centres unmarked) [Compound I-135] | 6.8 nM
25 | COc1ccc(S(=O)(=O)N(CC(C)C)CC(O)C(Cc2ccc(N(C)C3Cc4cccc(-c5sc6c(c5C(=O)O)CC(C)(C)CC6)c4C3)cc2)NC(=O)OC2COC3(C)OCCC23)cc1 (centres unmarked) [Compound I-404] | 1.88 nM
26 | COc1ccc(S(=O)(=O)N(CC(C)C)CC(O)C(Cc2ccc(N(C)Cc3ccc(N4CC(C)(C)C4=O)cc3-c3sc4c(c3C(=O)O)CC(C)(C)CC4)cc2)NC(=O)OC2COC3(C)OCCC23)cc1 (centres unmarked) [Compound I-750] | 4.6 nM
27 | CC(C)CN(C[C@@H](O)[C@H](Cc1ccc(OCc2ccccc2-c2sc3c(c2C(=O)O)CC(C)(C)CC3)cc1)NC(=O)O[C@H]1CO[C@@]2(C)OCC[C@@H]12)S(=O)(=O)c1ccc(N)c(/C=C/C(N)=O)c1 [Compound I-16] | 2.22 nM
28 | COc1ccc(S(=O)(=O)N(CC(C)C)CC(O)C(Cc2ccc(N3CC(Oc4ccc(-c5sc6c(c5C(=O)O)CC(C)(C)CC6)cc4)C3)cc2)NC(=O)OC2COC3(C)OCCC23)cc1 (centres unmarked) [Compound I-370] | 5.02 nM
29 | COc1ccc(S(=O)(=O)N(CC(C)C)CC(O)C(Cc2ccc(CN(C)Cc3ccccc3-c3sc4c(c3C(=O)O)CC(C)(C)CC4)cc2)NC(=O)OC2COC3(C)OCCC23)cc1 (centres unmarked) [Compound I-250] | 2.2 nM
30 | COc1ccc(S(=O)(=O)N(CC(C)C)CC(O)C(Cc2ccc(N(C)c3ccc(-c4sc5c(c4C(=O)O)CC(C)(C)CC5)cc3)cc2)NC(=O)OC2COC3(C)OCCC23)cc1 (centres unmarked) [Compound I-469] | 5.16 nM
31 | COC(=O)NC(C(=O)NC(Cc1ccccc1)C(O)CN(Cc1ccc(-c2sc3c(c2C(=O)O)CC(C)(C)CC3)cc1)NC(=O)C(NC(=O)OC)C(C)(C)C)C(C)(C)C (centres unmarked) [Compound I-901] | 2.34 nM
32 | COc1ccc(S(=O)(=O)N(CC(C)C)CC(O)C(Cc2ccc(N(C)Cc3sc4c(c3C(=O)O)CC(C)(C)CC4)cc2)NC(=O)OC2COC3(C)OCCC23)cc1 (centres unmarked) [Compound I-46] | 1.86 nM
33 | COc1ccc(S(=O)(=O)N(CC(C)C)CC(O)C(Cc2ccc(C(=O)NCc3ccccc3-c3sc4c(c3C(=O)O)CC(C)(C)CC4)cc2)NC(=O)OC2COC3(C)OCCC23)cc1 (centres unmarked) [Compound I-263] | 3.41 nM
34 | COc1ccc(S(=O)(=O)N(CC(C)C)CC(O)C(Cc2ccc(N3CCC(C(=O)Nc4ccccc4-c4sc5c(c4C(=O)O)CC(C)(C)CC5)C3)cc2)NC(=O)OC2COC3(C)OCCC23)cc1 (centres unmarked) [Compound I-672] | 2.05 nM
35 | COc1ccc(S(=O)(=O)N(CC(C)C)CC(O)C(Cc2ccc(OCCNC(=O)c3cccc(Cl)c3O)cc2)NC(=O)OC2COC3(C)OCCC23)cc1 (centres unmarked) [Compound I-169] | 0.88 nM
36 | COc1ccc(S(=O)(=O)N(CC(C)C)CC(O)C(Cc2ccc(N(C)CC(=O)Nc3sc4c(c3C(=O)O)CC(C)(C)CC4)cc2)NC(=O)OC2COC3(C)OCCC23)cc1 (centres unmarked) [Compound I-663] | 2.8 nM
37 | COc1ccc(S(=O)(=O)N(CC(C)C)CC(O)C(Cc2ccc(NCc3cnc(-c4sc5c(c4C(=O)O)CC(C)(C)CC5)c(C)c3)cc2)NC(=O)OC2COC3(C)OCCC23)cc1 (centres unmarked) [Compound I-559] | 1.87 nM
38 | COc1ccc(S(=O)(=O)N(CC(C)C)CC(O)C(Cc2ccc(OCc3ccccc3NC(=O)Nc3sc4c(c3C(=O)O)CC(C)(C)CC4)cc2)NC(=O)OC2COC3(C)OCCC23)cc1 (centres unmarked) [Compound I-229] | 3.7 nM
39 | COc1ccc(S(=O)(=O)N(CC(C)C)CC(O)C(Cc2ccc(NCc3cc(Oc4ccccc4)ccc3-c3sc4c(c3C(=O)O)CC(C)(C)CC4)cc2)NC(=O)OC2COC3(C)OCCC23)cc1 (centres unmarked) [Compound I-654] | 8.75 nM
40 | COc1ccc(S(=O)(=O)N(CC(C)C)CC(O)C(Cc2ccc(N(Cc3ccco3)Cc3ccccc3-c3sc4c(c3C(=O)O)CC(C)(C)CC4)cc2)NC(=O)OC2COC3(C)OCCC23)cc1 (centres unmarked) [Compound I-420] | 13.1 nM
41 | COc1ccc(S(=O)(=O)N(CC(C)C)CC(O)C(Cc2ccc(NC(C)c3ccccc3-c3sc4c(c3C(=O)O)CC(C)(C)CC4)cc2)NC(=O)OC2COC3(C)OCCC23)cc1 (centres unmarked) [Compound I-383] | 6.47 nM
42 | COc1ccc(S(=O)(=O)N(CC(C)C)CC(O)C(Cc2ccc(NCc3occc3-c3sc4c(c3C(=O)O)CC(C)(C)CC4)cc2)NC(=O)OC2COC3(C)OCCC23)cc1 (centres unmarked) [Compound I-276] | 2.16 nM
43 | COc1ccc(S(=O)(=O)N(CC(C)C)CC(O)C(Cc2ccc(OCc3cccnc3-c3sc4c(c3C(=O)O)CC(C)(C)CC4)cc2)NC(=O)OC2COC3(C)OCCC23)cc1 (centres unmarked) [Compound I-90] | 1.32 nM
44 | CC(C)CN(CC(O)C(Cc1ccc(CCc2sc3c(c2C(=O)O)CC(C)(C)CC3)cc1)NC(=O)OC1COC2OCCC12)S(=O)(=O)c1ccc2ncsc2c1 (centres unmarked) [Compound I-831] | 1.49 nM

From patent US20170253607A1, “LONG-ACTING HIV PROTEASE INHIBITOR” (Shionogi & Co., Ltd., priority 2014, published 2017)
